Test results from paper PMC5711809, “Bayesian Analysis of MicroScale Thermophoresis Data to Quantify Affinity of Protein:Protein Interactions with Human Survivin” (Scientific Reports, 2017).
Values joined by “and” are separate entries in the source; they are usually repeats but may differ in a detail not shown here. Identical values can stand only once. Like-named read-outs stand apart in the source and are kept apart here. Peptide text beside a SMILES is read from it.

What was measured:
human survivin [1] = molecular target: T1, human survivin (Homo sapiens, UniProt O15392); assay: PEPperCHIP peptide microarray, survivin binding to laser printed overlapping peptides; conditions: survivin 1, 10 and 100 μg/ml; secondary 6X His Tag Antibody DyLight680 antibody; fluorescence, LI-COR Odyssey; duplicate spots
T1 construct: His8 (pHIS8 vector); made in house; host or cells: E. coli BL21(DE3) star
Method: We tested the Bayesian inference method on potential binding interactions of survivin identified by PEPperCHIP Peptide Microarray (PEPperPRINT, GmbH, Heidelberg, Germany). These microarrays consisted of overlapping peptides originating from candidate proteins from the human proteome including hSgol1, hSgol2 and the N-terminal region of borealin (1–93). The peptides were generated by peptide laser printing[25] (Fig. 2). […] The spots are consistently visible at 1, 10 and 100 μg/ml survivin concentrations in the assay buffer (Fig. 2). Quantitative analysis of the fluorescent intensities of the specific and control antibodies for borealin, hSgo1l and hSgol2 are shown in Supplementary Fig. S1, S2 and S3, respectively.
Pre-staining of one of the PEPperCHIP® Peptide Microarrays was done with the secondary 6X His Tag Antibody DyLight680 antibody at a dilution of 1:1000 and with monoclonal anti-HA (12CA5)-DyLight800 control antibody at a dilution of 1:1000 to investigate background interactions with the protein-derived peptides that could interfere with the main assays. Subsequent incubation of other peptide microarray copies with survivin at concentrations of 1 µg/ml, 10 µg/ml and 100 µg/ml in incubation buffer was followed by staining with the secondary 6X His Tag Antibody DyLight680 (Rockland Immunochemicals) antibody and the monoclonal anti-HA (12CA5)-DyLight800 control antibody (Rockland Immunochemicals) as well as by read-out at scanning intensities of 7/7 (red/green). HA and His tag control peptides were simultaneously stained as internal quality control to confirm the assay quality and to facilitate grid alignment for data quantification. Read-out was performed with a LI-COR Odyssey Imaging System, while quantification of spot intensities and peptide annotation were done with PepSlide® Analyzer.

human survivin [2] = molecular target: T1, human survivin; assay: MicroScale Thermophoresis (MST) with chemically labelled survivin; type: binding; conditions: Buffer B (50 mM Tris pH 7.4, 150 mM NaCl, 10 mM MgCl2, 0.05% Tween-20, 1 mM DTT), 24 °C, three independent dilution series, read-out: KD, Robust (Bayesian)
Method: Survivin was expressed in E.coli BL21(DE3) star (Merck) cells using the pHIS8 expression vector used by Verdecia et al.[18] The expression was induced at OD600 0.6–0.8 in Luria Bertani (LB) media by 0.5 mM IPTG and incubated during 3–4 h at 30 °C. The cells were harvested at 6000 g during 20 min and resuspended in lysis buffer containing 50 mM Tris pH 8, 500 mM NaCl, 10 mM imidazole, 0.25 mM Pefabloc®SC (Sigma), […] DNAse (Sigma) and 0.2 mg/ml Lysozyme (Sigma). The cells were lysed with a high pressure homogenizer, using 3 cycles of […]. Survivin was purified by Ni^2+ chelation chromatography using 5 ml HisTrap FF column (GE Healthcare). Overnight dialysis in 50 mM Tris pH8, 150 mM NaCl and 1 mM DTT buffer and a gel filtration purification using a Superdex 75 100/300GL column (GE Healthcare) were done before chemical labelling. […] The borealin^6–20, hSgol1^291–312 and hSgol2^1066–1085 peptides were chemically synthetized (Genscript).
MicroScale Thermophoresis experiments were performed according to the NanoTemper technologies protocol in a Monolith NT.115 (green/blue) instrument (NanoTemper Technologies). […]
Survivin was labelled with the MO-L005 Monolith™ Protein Labeling Kit GREEN-MALEIMIDE (Cysteine Reactive) from NanoTemper Technologies. Peptides derived from hSgol1^291–312 ([…]) and hSgol2^1066–1085 ([…]) were analyzed in Buffer B (50 mM Tris pH 7.4, 150 mM NaCl, 10 mM MgCl2, 0.05% Tween-20 and 1 mM DTT). All samples were measured after an incubation of 5 min (according to “User Starting Guide Monolith® NT.115”).
The experiments were performed using 20% and 40% MST power and between 20–80% LED power at 24 °C. The MST traces were recorded using the standard parameters: 5 s MST power off, 30 s MST power on and 5 s MST power off. The reported measurement values are the combination of two effects: the fast, local environment dependent responses of the fluorophore to the temperature jump and the slower diffusive thermophoresis fluorescence changes. […]

human survivin [3] = molecular target: T2, human survivin (human, UniProt O15392 1-142, GREEN-MALEIMIDE (cysteine reactive) fluorescent label, in the MST experiments only); assay: peptide or protein array; PEPperCHIP microarray of overlapping printed peptides; incubated with survivin at 1, 10 and 100 µg/ml in incubation buffer; detected with 6X His Tag Antibody DyLight680; conditions: both partners purified
T2 construct: survivin, human, 16 kDa; The His tag is detected on the array by a 6X His Tag antibody; for the MST no cleavage of the tag is told; On the array the protein was unlabelled, in the MST labelled on cysteine; source: E. coli BL21(DE3) star, purified (Ni2+ chelation chromatography, gel filtration)

human survivin [4] = molecular target: T2, human survivin; assay: MST; labelled survivin held constant, serial dilution of the peptide; Buffer A (50 mM Tris pH 8.0, 150 mM NaCl, 1 mM DTT, 0.05% Tween); 5 min incubation; 24 °C; T-jump + thermophoresis; three dilution series; conditions: both partners purified
human survivin [5] = molecular target: T2, human survivin; assay: MST; labelled survivin held constant, serial dilution of the peptide; Buffer B (50 mM Tris pH 7.4, 150 mM NaCl, 10 mM MgCl2, 0.05% Tween-20, 1 mM DTT); 5 min incubation; 24 °C; T-jump + thermophoresis; three dilution series; conditions: both partners purified
human survivin [6] = molecular target: T2, human survivin; assay: as above; conditions: both partners purified; remark: listed apart in the source
[7] = 5 min incubation, median and HDI 95% interval of sampled posterior

T1 sequence (O15392 whole entry): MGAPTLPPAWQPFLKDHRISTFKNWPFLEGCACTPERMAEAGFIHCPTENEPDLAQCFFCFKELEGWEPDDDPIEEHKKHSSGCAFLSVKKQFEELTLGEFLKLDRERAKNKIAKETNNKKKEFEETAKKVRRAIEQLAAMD
T2 sequence (O15392 whole entry): as above

With “EVSKIVTVSTGIKKK [other basic peptide on the microarray]” the “microarray response to survivin (spot signal)” value (from here on “microarray response to survivin”) (human survivin [1]) was “did not react with survivin in a similar manner”.

For “HQSSFLLSASKKKRI [other basic peptide on the microarray]”, the “microarray response to survivin” value (human survivin [1]) was “did not react with survivin in a similar manner”.

In the case of `CSCC[C@H](NC(=O)[C@H](CCCNC(=N)N)NC(=O)[C@H](CCCCN)NC(=O)[C@H](CO)NC(=O)[C@H](CCCCN)NC(=O)[C@H](CCCNC(=N)N)NC(=O)[C@H](CCCNC(=N)N)NC(=O)[C@H](CC(N)=O)NC(=O)[C@H](C)NC(=O)[C@H](CCCCN)NC(=O)[C@H](CCCNC(=N)N)NC(=O)[C@H](CCCCN)NC(=O)[C@H](CCC(=O)O)NC(=O)[C@H](CCC(=O)O)NC(=O)[C@H](CCCNC(=N)N)NC(=O)[C@@H](N)CCCCN)C(=O)N[C@@H](CO)C(=O)N[C@@H](CCCCN)C(=O)N[C@@H](Cc1ccc(O)cc1)C(=O)N[C@@H](CCCCN)C(=O)N[C@@H](CCC(=O)O)C(=O)N[C@@H](CC(N)=O)C(=O)O` [hSgol1^291–312] (H-KREEKRKANRRKSKRMSKYKEN-OH), the Kd (human survivin [2]; [7]) is reported as 80.7 µM and the Kd (human survivin [2]; 120 min incubation, median and HDI 95% interval, incubation time affected adversely the sample quality) is reported as 53.6 µM.

For “KTFRKVKDSSSEKKR [other basic peptide on the microarray]”, the “microarray response to survivin” value (human survivin [1]) was “did not react with survivin in a similar manner”.

“KREEKRKANRRKSKR [basic hSgol1 peptide, laser printed on microarray]” was tested, and the “microarray response to survivin” value (human survivin [1]) was “main responses with the clearest spot morphologies”.

With “SPTDPKACNWKKYKF [other basic peptide on the microarray]” the “microarray response to survivin” value (human survivin [1]) was “did not react with survivin in a similar manner”.

For “ECQVKKVNKMTSKSK [hSgol2 peptide, laser printed on microarray]”, the “microarray response to survivin” value (human survivin [1]) was “main responses with the clearest spot morphologies”.

In the case of “KVNKMTSKSKKRKTS [hSgol2 peptide, laser printed on microarray]”, the “microarray response to survivin” value (human survivin [1]) is reported as “main responses with the clearest spot morphologies”.

For “RKANRRKSKRMSKYK [basic hSgol1 peptide, laser printed on microarray]”, the “microarray response to survivin” value (human survivin [1]) was “main responses with the clearest spot morphologies”.

For “DTQERKREEKRKANR [adjacent hSgol1 peptide, laser printed on microarray]”, the “microarray response to survivin” value (human survivin [1]) was “to some extent”.

`CSCC[C@H](NC(=O)[C@H](CCCCN)NC(=O)[C@H](CC(N)=O)NC(=O)[C@@H](NC(=O)[C@H](CCCCN)NC(=O)[C@H](CCCCN)NC(=O)[C@@H](NC(=O)[C@H](CCC(N)=O)NC(=O)[C@H](CS)NC(=O)[C@@H](N)CCC(=O)O)C(C)C)C(C)C)C(=O)N[C@H](C(=O)N[C@@H](CO)C(=O)N[C@@H](CCCCN)C(=O)N[C@@H](CO)C(=O)N[C@@H](CCCCN)C(=O)N[C@@H](CCCCN)C(=O)N[C@@H](CCCNC(=N)N)C(=O)N[C@@H](CCCCN)C(=O)N[C@H](C(=O)N[C@@H](CO)C(=O)O)[C@@H](C)O)[C@@H](C)O` [hSgol2^1066–1085] (H-ECQVKKVNKMTSKSKKRKTS-OH) was tested, and the Kd (human survivin [2]; [7]) was 1.6 µM.

B1: hSgol1 array peptide KREEKRKANRRKSKR (peptide)
peptide: KREEKRKANRRKSKR
notes: human Shugoshin-like 1 (hSgol1), 15-mer of the overlapping peptide array; source: laser-printed on the PEPperCHIP peptide microarray (PEPperPRINT)
B1: binds (human survivin [3]).

B2: borealin^6–20 peptide (peptide)
peptide: GSSRVAKTNSLRRRK
notes: borealin, human, residues 6-20; source: synthetic peptide (Genscript) for MST; laser-printed on the PEPperCHIP peptide microarray (PEPperPRINT)
For B2, the Kd (human survivin [4]) was 10.8 µM and 10.2 µM and 10 µM.

B3: hSgol1^291–312 peptide (peptide)
peptide: KREEKRKANRRKSKRMSKYKEN
notes: human Shugoshin-like 1 (hSgol1), residues 291-312, with the KEN motif; also called hSgol1 peptide; source: synthetic peptide (Genscript)
In the case of B3, the Kd (human survivin [5]) is reported as 80.9 µM.

B4: hSgol2^1066–1085 peptide (peptide)
peptide: ECQVKKVNKMTSKSKKRKTS
notes: human Shugoshin-like 2 (hSgol2), residues 1066-1085; also called hSgol2 peptide; source: synthetic peptide (Genscript)
With B4 the Kd (human survivin [6]) was 1.6 µM and 1.4 µM.

B5: hSgol1 array peptide RKANRRKSKRMSKYK (peptide)
peptide: RKANRRKSKRMSKYK
notes: as for B1
B5: binds (human survivin [3]).

B6: hSgol2 array peptide ECQVKKVNKMTSKSK (peptide)
peptide: ECQVKKVNKMTSKSK
notes: human Shugoshin-like 2 (hSgol2), 15-mer of the overlapping peptide array; source: laser-printed on the PEPperCHIP peptide microarray (PEPperPRINT)
B6: binds (human survivin [3]).

B7: hSgol2 array peptide KVNKMTSKSKKRKTS (peptide)
peptide: KVNKMTSKSKKRKTS
notes: as for B6
B7: binds (human survivin [3]).
